Experiments:
[1] = test system: HEMn-MP; assay: Apoptosis via Annexin V/PI staining, flow cytometry; type: cell-based, human; conditions: HEMn-MP primary melanocytes, 72 hr, range 0–10.24 µM
Procedure: (§1) Phosphatidyl serine exposure was assessed in tumor cells and melanocytes by flow cytometry using APC-Annexin V and propidium iodide (PI; BD Pharmingen, San Diego, CA) as previously described. Each analysis was performed utilizing at least 10,000 events. We considered the Annexin V positive cells (early apoptosis) and Annexin V/PI double positive cells (late apoptosis) cells as the apoptotic cell population. The 4-parameter logistic or Hill model was the assumed dose-response relationship for the in vitro inhibition and cell viability experiments. Nonlinear least squares regression was used to estimate the model parameters and generate 95% confidence intervals for the IC50 estimates. For in vivo experiments, tumor volumes were first log-transformed to meet test assumptions of normality and homoscedasticity. Changes in tumor volumes were analyzed using a two-sample t-test to evaluate the difference from first day of treatment to the last for A375 xenografts (day 17), and from day 1 to day 10 for CHL-1 xenografts as day 10 marks the first mouse sacrificed when 1500 mm^3 tumor volume was reached. ANOVA was used to compare the expression of XPO1 staining among samples from the melanoma tissue core array. The Wilcoxon rank-sum test was used to analyze data comparing growth inhibition and apoptosis of the five metastatic melanoma cell lines to the three melanocyte cell lines.

[2] = test system: HEMn-DP; assay: as above; type: cell-based, human; conditions: HEMn-DP primary melanocytes, 72 hr, range 0–10.24 µM
Procedure: as §1

[3] = test system: CHL-1; assay: Subcellular fractionation and immunoblot analysis; type: cell-based, human
Procedure: (§2) Human melanoma cell lines were seeded in 6-well plates (2×10^5) and allowed to adhere overnight. After treatment for various time points, the cells were harvested then fractionated using NE-PER Nuclear and Cytoplasmic Extraction Reagents from Thermo Scientific following the manufacturer's protocol. Nuclear and cytoplasmic fractions were validated via immunoblot analysis using Lamin B and GAPDH antibodies. Immunoblots were prepared as previously described and probed with antibodies specific for TP53, CDKN1A (p21), XPO1, HDM2 (MDM2), Lamin B (Santa Cruz Biotechnology, Santa Cruz, CA), pMAPK, PARP (Cell Signaling Technology), GAPDH or β-actin (Sigma). Following incubation with the appropriate horseradish peroxidase-conjugated secondary antibody, immune complexes were detected using the ECL Plus detection kit (Amersham Biosciences, Ayesbury, UK).

[4] = test system: A375; assay: Subcellular fractionation and immunoblot analysis; type: cell-based, human
Procedure: as §2

[5] = test system: HEMn-MP; assay: Cellular growth assay (MTS), 72 h; type: cell-based, human; conditions: HEMn-MP primary melanocytes, highest concentration 10240 nM
Procedure: (§3) Cells were seeded in 96-well plates (2×10^4) in triplicate and allowed to adhere overnight. Fresh media containing KPT-185, KPT-185-trans, KPT-276, or KPT-330 was added to each well at various concentrations (range = 40–10240 nM) and cells were incubated at 37°C/5% CO2 for 72 hours. Cells treated with DMSO (diluent) and untreated cells served as controls. At this time, the percentage of cell growth was evaluated using the MTS assay (CellTiter 96 AQueous Non-Radioactive Cell Proliferation Assay, Promega) and quantified by determining the optical density at 595 nm using a Bio-Rad iMark™ microplate reader. The 4-parameter logistic or Hill model was the assumed dose-response relationship for the in vitro inhibition and cell viability experiments. Nonlinear least squares regression was used to estimate the model parameters and generate 95% confidence intervals for the IC50 estimates. For in vivo experiments, tumor volumes were first log-transformed to meet test assumptions of normality and homoscedasticity. Changes in tumor volumes were analyzed using a two-sample t-test to evaluate the difference from first day of treatment to the last for A375 xenografts (day 17), and from day 1 to day 10 for CHL-1 xenografts as day 10 marks the first mouse sacrificed when 1500 mm^3 tumor volume was reached. ANOVA was used to compare the expression of XPO1 staining among samples from the melanoma tissue core array. The Wilcoxon rank-sum test was used to analyze data comparing growth inhibition and apoptosis of the five metastatic melanoma cell lines to the three melanocyte cell lines.

[6] = test system: CHL-1; assay: Cellular growth assay (MTS), 72 h; type: cell-based, human; conditions: Homo sapiens, CHL-1, 72 hr treatment, read-out: Growth Inhibition IC50
Procedure: as §3

[7] = test system: A375; assay: Cellular growth assay (MTS), 72 h; type: cell-based, human; conditions: A375, 72 hr treatment, read-out: Growth Inhibition IC50
Procedure: as §3

[8] = test system: HEMn-DP; assay: Cellular growth assay (MTS), 72 h; type: cell-based, human; conditions: HEMn-DP primary melanocytes, highest concentration 10240 nM
Procedure: as §3

[9] = test system: FO-1; assay: Cellular growth assay (MTS), 72 h; type: cell-based, human; conditions: FO-1, 72 hr treatment, read-out: Growth Inhibition IC50
Procedure: as §3

[10] = test system: melanoma cell lines; assay: Immunoblot analysis of PARP cleavage; type: cell-based, human; conditions: KPT-185 at the IC50 for apoptosis for each cell line
Procedure: Immunoblots were prepared as previously described and probed with antibodies specific for TP53, CDKN1A (p21), XPO1, HDM2 (MDM2), Lamin B (Santa Cruz Biotechnology, Santa Cruz, CA), pMAPK, PARP (Cell Signaling Technology), GAPDH or β-actin (Sigma). Following incubation with the appropriate horseradish peroxidase-conjugated secondary antibody, immune complexes were detected using the ECL Plus detection kit (Amersham Biosciences, Ayesbury, UK).

[11] = test system: Wm1366; assay: Apoptosis via Annexin V/PI staining, flow cytometry; type: cell-based; conditions: Homo sapiens, Wm1366, 72 hr treatment
Procedure: as §1

[12] = test system: HEM-l; assay: as above; type: cell-based; conditions: Homo sapiens, Melanocyte, HEM-l primary melanocytes, 72 hr treatment
Procedure: as §1

[13] = test system: Hs294T; assay: as above; type: cell-based; conditions: Homo sapiens, Hs 294T, 72 hr treatment
Procedure: as §1

[14] = test system: CHL-1; assay: as above; type: cell-based; conditions: Homo sapiens, CHL-1, 72 hr treatment
Procedure: as §1

[15] = test system: A375; assay: as above; type: cell-based; conditions: Homo sapiens, A-375, A375, 72 hr treatment
Procedure: as §1

[16] = test system: FO-1; assay: as above; type: cell-based; conditions: Homo sapiens, FO-1, 72 hr treatment
Procedure: as §1

[17] = test system: CHL-1; assay: Cell cycle assay (PI, flow cytometry); type: cell-based, human; conditions: CHL-1, 1 µM, 24 h or 48 hr, PI staining
Procedure: (§4) Cell-cycle analysis was conducted using propidium iodide (PI) following the manufacturer's protocol (BD Pharmigen). Cells were plated in 6-well plates and treated for 24 h or 48 hr with 1 µM of KPT-185. A total of 1×10^5 cells per analysis were examined by flow cytometry (FACSCalibur), and analyzed using ModFit LT 3.3.

[18] = test system: A375; assay: Cell cycle assay (PI, flow cytometry); type: cell-based, human; conditions: A375, 1 µM, 24 h or 48 hr, PI staining
Procedure: as §4

[19] = test system: Wm1366; assay: Cellular growth assay (MTS), 72 h; type: cell-based; conditions: Homo sapiens, Wm1366, 72 hr treatment, read-out: Growth Inhibition IC50
Procedure: as §3

[20] = test system: HEM-l; assay: Cellular growth assay (MTS), 72 h; type: cell-based; conditions: Homo sapiens, Melanocyte, HEM-l primary melanocytes, 72 hr treatment, read-out: Growth Inhibition IC50
Procedure: as §3

[21] = test system: Hs294T; assay: Cellular growth assay (MTS), 72 h; type: cell-based; conditions: Homo sapiens, Hs 294T, 72 hr treatment, read-out: Growth Inhibition IC50
Procedure: as §3

[22] = Homo sapiens, Melanocyte, read-out: Growth Inhibition IC50

- Apoptosis IC50 [1]: not achievable
- Apoptosis IC50 ([1]; listed as KPT185): Not achieved
- Apoptosis IC50 [2]: not achievable
- Apoptosis IC50 ([2]; listed as KPT185): Not achieved
- IC50 [7]: 45.9 nM
- IC50 ([7]; Homo sapiens, A-375, 72 h): ~50 nM
- IC50 [11]: 661 nM
- IC50 [12]: 3.17 µM
- IC50 [13]: 212 nM
- IC50 [14]: 2410 nM
- IC50 [15]: 147 nM
- IC50 [16]: 297 nM
Structure (SMILES): COc1cc(-c2ncn(/C=C\C(=O)OC(C)C)n2)cc(C(F)(F)F)c1 [KPT-185]
- TP53 or CDKN1A induction ([3]; CHL-1 (mutated TP53), 500 nM): only limited TP53 or CDKN1A induction
- Nuclear accumulation of phosphorylated MAPK ([3]; CHL-1, nuclear fraction, immunoblot): accumulated in the nuclear compartment
- Expression of TP53 protein ([4]; A375 (TP53 WT), 500 nM, nuclear localization at 16 hour): upregulated
- CDKN1A expression ([4]; A375, 500 nM): upregulation
- HDM2 expression in cytoplasmic and nuclear compartment ([4]; A375, KPT-185 at IC50, 16 hr, no detectable protein at basal level): robust expression of HDM2
- Nuclear accumulation of phosphorylated MAPK ([4]; A375, nuclear fraction, immunoblot): accumulated in the nuclear compartment
- Growth Inhibition IC50 [5]: Not achieved
- IC50 [5, 22]: > 10.2 µM
- IC50 [6]: 592 nM
- Growth Inhibition IC50 [8]: Not achieved
- IC50 [8, 22]: > 10.2 µM
- IC50 [9]: 32.1 nM
- IC50 ([9]; Homo sapiens, 72 h): ~50 nM
- PARP cleavage [10]: cleavage of PARP
- Cell cycle effect [17]: arrested in the G1 phase
- Cell cycle effect [18]: arrested in the G1 phase
- IC50 [19]: 347 nM
- IC50 [20]: 4.13 µM
- IC50 [21]: 48.9 nM

— PMC4109950, “Novel Small Molecule XPO1/CRM1 Inhibitors Induce Nuclear Accumulation of TP53, Phosphorylated MAPK and Apoptosis in Human Melanoma Cells” (PLoS ONE, 2014)
